Assay results reported in ChEMBL document CHEMBL1127557, “Novel potassium-channel openers: preparation and pharmacological evaluation of racemic and optically active N-(6-amino-3-pyridyl)-N'-bicycloalkyl-N"-cyanoguanidine derivatives” (J Med Chem, 1994).

Key:
[1] = species on record: Rattus norvegicus; assay: Compound was tested for vasorelaxant activity on the basis of ability to relax endothelium-denuded rat aortic strips toned with 20 mM KCl; type: functional, Aorta
[2] = system: Rattus norvegicus; assay: Compound was tested for hypotensive activity in anesthetized normotensive rats by intravenous injection. Systolic blood pressure measured 30 min after injection; type: functional
[3] = species on record: Rattus norvegicus; assay: Compound was tested for oral diuretic effect on spontaneously hypertensive rats by measuring the excretion of sodium at vehicle concentration; type: ADME, organism-based, Urine; conditions: in vivo
[4] = Ratio between Na+ and K+ excretion values at a dose of 5 mg/kg; type: ADME, organism-based; set-up: dose 5 mg/kg; conditions: in vivo
[5] = Ratio between Na+ and K+ excretion values at a dose of 1 mg/kg; type: ADME, organism-based; set-up: dose 1 mg/kg; conditions: in vivo
[6] = system: Rattus norvegicus; assay: Compound was tested for oral diuretic effect on spontaneously hypertensive rats by measuring the potassium excretion at 5 mg/kg concentration; type: ADME, organism-based, Urine; set-up: dose 5 mg/kg, route oral; conditions: in vivo
[7] = system: Rattus norvegicus; assay: Compound was tested for oral diuretic effect on spontaneously hypertensive rats by measuring the excretion of sodium at 1 mg/kg concentration; type: ADME, organism-based, Urine; set-up: dose 1 mg/kg, route oral; conditions: in vivo
[8] = system: Rattus norvegicus; assay: Compound was tested for oral diuretic effect on spontaneously hypertensive rats by measuring the urinary volume at 5 mg/kg concentration; type: functional, Urine
[9] = species on record: Rattus norvegicus; assay: Compound was tested for oral diuretic effect on spontaneously hypertensive rats by measuring the potassium excretion at vehicle concentration; type: ADME, organism-based, Urine; conditions: in vivo
[10] = system: Rattus norvegicus; assay: Compound was tested for oral diuretic effect on spontaneously hypertensive rats by measuring the excretion of sodium at 5 mg/kg concentration; type: ADME, organism-based, Urine; set-up: dose 5 mg/kg, route oral; conditions: in vivo
[11] = system: Rattus norvegicus; assay: Compound was tested for oral diuretic effect on spontaneously hypertensive rats by measuring the potassium excretion at 1 mg/kg concentration; type: ADME, organism-based, Urine; set-up: dose 1 mg/kg, route oral; conditions: in vivo
[12] = system: Rattus norvegicus; assay: Compound was tested for oral diuretic effect on spontaneously hypertensive rats by measuring the urinary volume at 1 mg/kg concentration; type: functional, Urine
[13] = species on record: Rattus norvegicus; assay: Compound was tested for oral diuretic effect on spontaneously hypertensive rats by measuring the urinary volume at vehicle concentration; type: functional, Urine
[14] = system: Rattus norvegicus; assay: Compound was tested for hypotensive activity in anesthetized normotensive rats by intravenous injection, Systolic blood pressure measured 30 min after injection; type: functional; conditions: 0.5 h
[15] = system: Rattus norvegicus; assay: Compound was tested for oral diuretic effect on spontaneously hypertensive rats by measuring the excretion of sodium at 5 mg/kg concentration.; type: ADME, organism-based, Urine; set-up: dose 5 mg/kg, route oral; conditions: in vivo
[16] = Rattus norvegicus, Blood, iv, 0.5 h, read-out: ED30

Row | SMILES | IC50 [1] | IC50 ([1]; Rattus norvegicus, Aorta) | ED30 [2, 16] | Na+ excretion [3] | Ratio [4] | Ratio [5] | K+ excretion [6] | Na+ excretion [7] | Urinary volume [8] | K+ excretion [9] | K+ excretion [11] | Urinary volume [12] | Urinary volume [13] | other results
1 | C[C@]12CC[C@H](C[C@@H]1/N=C(\NC#N)Nc1ccc(N)nc1)C2.Cl | 71 nM |  |  |  |  |  |  |  |  |  |  |  |  | ED30 [2]: 0.28 mg/kg
2 | C[C@]12CC[C@H](C[C@@H]1/N=C(\NC#N)Nc1ccc(N)nc1)C2 |  | 118 nM | 0.18 mg/kg |  |  |  |  |  |  |  |  |  |  | 
3 | N#CN/C(=N\[C@@H]1C[C@H]2CC[C@@H]1C2)Nc1ccc(N)nc1 (stereo in doubt; (+)-9) | 267 nM |  |  |  |  |  |  |  |  |  |  |  |  | ED30 [2]: 0.4 mg/kg
4 | CC1(C)Oc2ccc(C#N)cc2[C@@H](N2CCCC2=O)[C@@H]1O [CROMAKALIM] |  | 110 nM | 0.11 mg/kg |  |  |  |  |  |  |  |  |  |  | 
5 | C[C@]12CC[C@H](C[C@@H]1/N=C(\NC#N)Nc1ccc(N)nc1)C2.Cl (racemic) | 79 nM |  | 0.2 mg/kg | 1.072 m equiv 5hr-1 kg-1 | 0.59 | 1.08 | 0.515 m equiv 5hr-1 kg-1 | 0.8 m equiv 5hr-1 kg-1 | 7.31 ml kg-1 5hr-1 | 0.8 m equiv 5hr-1 kg-1 | 0.747 m equiv 5hr-1 kg-1 | 6.92 ml kg-1 5hr-1 | 6.84 ml kg-1 5hr-1 | Na+ excretion [10]: 0.311 m equiv 5hr-1 kg-1
6 | Cl.N#CN/C(=N\[C@@H]1CC2CCC1C2)Nc1ccc(N)nc1 (mixture of isomers) |  |  |  | 1.357 m equiv 5hr-1 kg-1 | 0.5 | 1.08 | 1.249 m equiv 5hr-1 kg-1 | 1.523 m equiv 5hr-1 kg-1 | 4.68 ml kg-1 5hr-1 | 1.078 m equiv 5hr-1 kg-1 | 1.35 m equiv 5hr-1 kg-1 | 8.77 ml kg-1 5hr-1 | 5.15 ml kg-1 5hr-1 | ED30 [14]: 0.51 mg/kg; Na+ excretion [15]: 0.694 m equiv 5hr-1 kg-1
7 | Cl.N#CN/C(=N\[C@H]1C[C@H]2CC[C@@H]1C2)Nc1ccc(N)nc1 (racemic) | 392 nM |  | 0.17 mg/kg | 1.072 m equiv 5hr-1 kg-1 | 1.27 | 1.54 | 1.46 m equiv 5hr-1 kg-1 | 0.89 m equiv 5hr-1 kg-1 | 18.37 ml kg-1 5hr-1 | 0.8 m equiv 5hr-1 kg-1 | 0.646 m equiv 5hr-1 kg-1 | 5.53 ml kg-1 5hr-1 | 6.84 ml kg-1 5hr-1 | Na+ excretion [10]: 1.865 m equiv 5hr-1 kg-1
8 | N#CN/C(=N\[C@H]1C[C@H]2CC[C@@H]1C2)Nc1ccc(N)nc1 | 90 nM |  | 0.1 mg/kg |  |  |  |  |  |  |  |  |  |  | 
9 | N#CN/C(=N\[C@@H]1C[C@H]2CC[C@@H]1C2)Nc1ccc(N)nc1 (stereo in doubt; (-)-9) |  | 278 nM | 0.57 mg/kg |  |  |  |  |  |  |  |  |  |  | 
10 | CC(N/C(=N\C#N)Nc1ccncc1)C(C)(C)C (stereo not given) [PINACIDIL ANHYDROUS] |  | 380 nM | 0.15 mg/kg | 1.357 m equiv 5hr-1 kg-1 | 0.12 | 0.78 | 0.584 m equiv 5hr-1 kg-1 | 1.27 m equiv 5hr-1 kg-1 | 2.56 ml kg-1 5hr-1 | 1.078 m equiv 5hr-1 kg-1 | 1.546 m equiv 5hr-1 kg-1 | 7.62 ml kg-1 5hr-1 | 5.15 ml kg-1 5hr-1 | Na+ excretion [10]: 0.078 m equiv 5hr-1 kg-1
11 | Cl.N#CN/C(=N\C1CC2CCC1C2)Nc1ccc(N)nc1 (stereo not given) |  | 593 nM | 0.74 mg/kg |  |  |  |  |  |  |  |  |  |  | 
